Where “and” joins values, the source holds several entries; their conditions need not be identical. Identical values can stand only once.
Experiments:
[1] = biological target: BdGUS (Bifidobacterium dentium GUS) (Bifidobacterium dentium, UniProt D2Q7B1); assay: biochemical; parameters: GUS activity (hydrolysis rate of MUG) / 1/v: unit not given here
HsGUS (human GUS) = biological target: T1, HsGUS (human GUS) (Homo sapiens, UniProt P08236); assay: GUS inhibition assay, hydrolysis of 4-methylumbelliferyl-β-glucuronide, HsGUS; format: biochemical; parameters: GUS activity (hydrolysis rate of MUG): unit not given here
T1 construct: HsGUS was prepared as described[37]; made in house
T1 sequence (P08236 23-651): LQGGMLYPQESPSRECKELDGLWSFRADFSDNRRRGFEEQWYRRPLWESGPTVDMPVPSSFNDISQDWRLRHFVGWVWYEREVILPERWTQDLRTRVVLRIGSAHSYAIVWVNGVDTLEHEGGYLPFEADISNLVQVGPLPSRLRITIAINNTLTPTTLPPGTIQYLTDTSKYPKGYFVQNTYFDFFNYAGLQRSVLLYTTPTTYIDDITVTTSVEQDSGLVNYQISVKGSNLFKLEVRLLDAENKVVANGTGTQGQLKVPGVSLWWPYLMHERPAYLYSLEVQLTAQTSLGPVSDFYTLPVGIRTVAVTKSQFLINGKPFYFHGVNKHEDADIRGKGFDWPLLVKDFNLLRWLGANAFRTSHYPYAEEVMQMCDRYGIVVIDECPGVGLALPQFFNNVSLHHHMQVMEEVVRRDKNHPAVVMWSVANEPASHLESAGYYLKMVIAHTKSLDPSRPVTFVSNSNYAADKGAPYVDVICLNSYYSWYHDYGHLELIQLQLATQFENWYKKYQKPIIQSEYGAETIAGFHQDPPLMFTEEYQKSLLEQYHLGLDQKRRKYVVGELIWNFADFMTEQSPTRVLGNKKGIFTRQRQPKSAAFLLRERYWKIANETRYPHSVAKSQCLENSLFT

[2] = [Inhibitor 3] = 0.25 μM, [MUG] 0.375 mM
[3] = [Inhibitor 3] = 0.25 μM, [MUG] 0.75 mM
[4] = [Inhibitor 3] = 0.25 μM, [MUG] 1.5 mM
[5] = [Inhibitor 3] = 0.25 μM, [MUG] 3 mM
[6] = [Inhibitor 3] = 0.5 μM, [MUG] 0.375 mM
[7] = [Inhibitor 3] = 0.5 μM, [MUG] 0.75 mM
[8] = [Inhibitor 3] = 0.5 μM, [MUG] 1.5 mM
[9] = [Inhibitor 3] = 0.5 μM, [MUG] 3 mM
[10] = [Inhibitor 3] = 1 μM, [MUG] 0.375 mM
[11] = [Inhibitor 3] = 1 μM, [MUG] 0.75 mM
[12] = [Inhibitor 3] = 1 μM, [MUG] 1.5 mM
[13] = [Inhibitor 3] = 1 μM, [MUG] 3 mM
[14] = [Inhibitor 3] = 2 μM, [MUG] 0.375 mM
[15] = [Inhibitor 3] = 2 μM, [MUG] 0.75 mM
[16] = [Inhibitor 3] = 2 μM, [MUG] 1.5 mM
[17] = [Inhibitor 3] = 2 μM, [MUG] 3 mM

BdGUS (Bifidobacterium dentium GUS), sequence (D2Q7B1 1-668): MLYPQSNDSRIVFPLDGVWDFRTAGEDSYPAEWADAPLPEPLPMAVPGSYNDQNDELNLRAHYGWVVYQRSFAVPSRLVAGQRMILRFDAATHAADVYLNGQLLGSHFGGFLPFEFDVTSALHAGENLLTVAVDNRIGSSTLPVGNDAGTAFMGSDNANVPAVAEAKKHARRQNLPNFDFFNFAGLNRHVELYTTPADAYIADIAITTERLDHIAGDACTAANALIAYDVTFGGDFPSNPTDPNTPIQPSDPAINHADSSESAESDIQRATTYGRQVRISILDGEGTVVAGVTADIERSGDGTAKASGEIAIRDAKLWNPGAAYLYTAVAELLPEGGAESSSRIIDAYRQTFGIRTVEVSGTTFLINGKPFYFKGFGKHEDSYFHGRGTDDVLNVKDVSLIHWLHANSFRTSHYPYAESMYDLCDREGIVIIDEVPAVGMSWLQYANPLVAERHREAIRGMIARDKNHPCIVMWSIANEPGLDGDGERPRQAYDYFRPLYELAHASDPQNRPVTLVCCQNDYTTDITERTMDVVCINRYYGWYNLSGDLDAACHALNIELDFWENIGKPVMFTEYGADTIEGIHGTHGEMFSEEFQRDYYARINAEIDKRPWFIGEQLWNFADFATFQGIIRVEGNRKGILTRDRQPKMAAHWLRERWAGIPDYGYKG

For `CCCCCC[C@@H]1NC[C@@H](O)[C@H](O)[C@H]1C(=O)O` [Inhibitor 3, C6-hexyl UIFG], the Ki ([1]; BdGUS, 50 mM HEPES pH 7.5, 37 °C) was 0.86 ± 0.2 µM, the 1/v [1, 2] was 0.8098 and 0.8436 and 0.8112 and the “GUS activity (hydrolysis rate of MUG)” value [1, 2] was 0.2757 and 0.2647 and 0.2753. For the same molecule, the 1/v [1, 3] was 0.4851 and 0.501 and 0.4979, the “GUS activity (hydrolysis rate of MUG)” value [1, 3] was 0.4603 and 0.4457 and 0.4485 and the 1/v [1, 4] was 0.3326 and 0.3553 and 0.3441. For the same molecule, the “GUS activity (hydrolysis rate of MUG)” value [1, 4] was 0.6714 and 0.6286 and 0.649, the 1/v [1, 5] was 0.2934 and 0.2936 and 0.2832 and the “GUS activity (hydrolysis rate of MUG)” value [1, 5] was 0.761 and 0.7606 and 0.7885. The 1/v [1, 6] was 1.013 and 1.039 and 0.9379, the “GUS activity (hydrolysis rate of MUG)” value [1, 6] was 0.2203 and 0.2148 and 0.2381 and the 1/v [1, 7] was 0.5713 and 0.5847 and 0.5765. For the same molecule, the “GUS activity (hydrolysis rate of MUG)” value [1, 7] was 0.3909 and 0.3819 and 0.3873, the 1/v [1, 8] was 0.386 and 0.3868 and 0.3898 and the “GUS activity (hydrolysis rate of MUG)” value [1, 8] was 0.5784 and 0.5773 and 0.5728. The 1/v [1, 9] was 0.2997 and 0.3073 and 0.3039, the “GUS activity (hydrolysis rate of MUG)” value [1, 9] was 0.7451 and 0.7267 and 0.7347 and the 1/v [1, 10] was 1.333 and 1.373 and 1.236. The “GUS activity (hydrolysis rate of MUG)” value [1, 10] was 0.1676 and 0.1627 and 0.1806, the 1/v [1, 11] was 0.7658 and 0.7424 and 0.7331 and the “GUS activity (hydrolysis rate of MUG)” value [1, 11] was 0.2916 and 0.3008 and 0.3046. The 1/v [1, 12] was 0.4723 and 0.4867 and 0.4608, the “GUS activity (hydrolysis rate of MUG)” value [1, 12] was 0.4727 and 0.4588 and 0.4846 and the 1/v [1, 13] was 0.3528 and 0.337 and 0.3348. The “GUS activity (hydrolysis rate of MUG)” value [1, 13] was 0.6328 and 0.6626 and 0.667, the 1/v [1, 14] was 1.957 and 1.888 and 1.908 and the “GUS activity (hydrolysis rate of MUG)” value [1, 14] was 0.1141 and 0.1183 and 0.117. The 1/v [1, 15] was 1.031 and 0.9985 and 1.0212, the “GUS activity (hydrolysis rate of MUG)” value [1, 15] was 0.2167 and 0.2236 and 0.2187 and the 1/v [1, 16] was 0.6082 and 0.615 and 0.6155. The “GUS activity (hydrolysis rate of MUG)” value [1, 16] was 0.3672 and 0.3631 and 0.3628, the 1/v [1, 17] was 0.4308 and 0.4219 and 0.4288 and the “GUS activity (hydrolysis rate of MUG)” value [1, 17] was 0.5183 and 0.5293 and 0.5208. For the same molecule, the Ki (HsGUS (human GUS); HsGUS, 50 mM sodium acetate pH 4.5, 37 °C) was 5.3 ± 0.9 µM, the “GUS activity (hydrolysis rate of MUG)” value (HsGUS (human GUS); [Inhibitor 3] =0.15625 μM, [MUG] 0.1 mM) was 771.278 and 806.238 and the “GUS activity (hydrolysis rate of MUG)” value (HsGUS (human GUS); [Inhibitor 3] =0.15625 μM, [MUG] 0.2 mM) was 1372.81 and 1460.04. The “GUS activity (hydrolysis rate of MUG)” value (HsGUS (human GUS); [Inhibitor 3] =0.15625 μM, [MUG] 0.4 mM) was 2346.7 and 2406.16, the “GUS activity (hydrolysis rate of MUG)” value (HsGUS (human GUS); [Inhibitor 3] =0.15625 μM, [MUG] 0.6 mM) was 2899.99 and 3077.74 and the “GUS activity (hydrolysis rate of MUG)” value (HsGUS (human GUS); [Inhibitor 3] =0.15625 μM, [MUG] 0.8 mM) was 3398.11 and 3693.06. The “GUS activity (hydrolysis rate of MUG)” value (HsGUS (human GUS); [Inhibitor 3] =0.15625 μM, [MUG] 1.2 mM) was 4234.64 and 3962.7, the “GUS activity (hydrolysis rate of MUG)” value (HsGUS (human GUS); [Inhibitor 3] =0.15625 μM, [MUG] 1.6 mM) was 4964.29 and 4569.67 and the “GUS activity (hydrolysis rate of MUG)” value (HsGUS (human GUS); [Inhibitor 3] =0.15625 μM, [MUG] 2 mM) was 5606.01 and 4919.37. For the same molecule, the “GUS activity (hydrolysis rate of MUG)” value (HsGUS (human GUS); [Inhibitor 3] =0.3125 μM, [MUG] 0.1 mM) was 857.043 and 831.938.
